Measurements from BindingDB's records for doi:10.1021/jm030336u (University of Tennessee At Memphis, 2004).

Each compound was assayed against T1, Androgen receptor (Rattus norvegicus, UniProt P15207) (assay: Competitive Radioligand Displacement Assay). Conditions: pH 7.4; 4 °C.
T1 sequence (P15207 whole entry): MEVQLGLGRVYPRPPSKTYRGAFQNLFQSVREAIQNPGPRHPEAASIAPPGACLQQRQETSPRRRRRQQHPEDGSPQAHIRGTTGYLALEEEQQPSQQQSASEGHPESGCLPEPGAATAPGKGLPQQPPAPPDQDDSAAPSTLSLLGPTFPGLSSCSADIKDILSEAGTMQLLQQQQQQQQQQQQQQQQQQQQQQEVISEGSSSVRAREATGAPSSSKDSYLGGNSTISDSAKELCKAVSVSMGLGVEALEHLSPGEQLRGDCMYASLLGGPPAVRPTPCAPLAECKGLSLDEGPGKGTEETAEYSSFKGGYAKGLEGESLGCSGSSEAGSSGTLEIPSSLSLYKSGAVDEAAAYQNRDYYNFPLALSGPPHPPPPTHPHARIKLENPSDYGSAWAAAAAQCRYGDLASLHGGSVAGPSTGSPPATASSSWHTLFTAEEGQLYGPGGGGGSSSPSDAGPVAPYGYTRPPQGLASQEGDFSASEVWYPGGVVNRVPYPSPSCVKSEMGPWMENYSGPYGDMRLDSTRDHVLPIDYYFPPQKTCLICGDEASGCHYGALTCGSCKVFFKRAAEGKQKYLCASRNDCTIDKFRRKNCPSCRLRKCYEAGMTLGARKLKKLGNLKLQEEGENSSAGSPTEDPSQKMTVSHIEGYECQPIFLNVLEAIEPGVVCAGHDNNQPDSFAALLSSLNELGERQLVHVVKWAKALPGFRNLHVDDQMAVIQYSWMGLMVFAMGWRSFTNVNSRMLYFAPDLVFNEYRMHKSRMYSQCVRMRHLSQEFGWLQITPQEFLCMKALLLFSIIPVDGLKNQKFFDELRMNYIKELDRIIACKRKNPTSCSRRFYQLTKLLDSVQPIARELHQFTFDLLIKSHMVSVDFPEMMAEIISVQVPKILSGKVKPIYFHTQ

Compound | Ki [nM]
C[C@](O)(COc1ccc(Br)cc1)C(=O)Nc1ccc([N+](=O)[O-])c(C(F)(F)F)c1 [(2S)-3-(4-bromophenoxy)-2-hydroxy-2-methyl-N-[4-nitro-3-(trifluoromethyl)phenyl]propanamide] | 11.6
C[C@](O)(COc1ccc(I)cc1)C(=O)Nc1ccc([N+](=O)[O-])c(C(F)(F)F)c1 [(2S)-2-hydroxy-3-(4-iodophenoxy)-2-methyl-N-[4-nitro-3-(trifluoromethyl)phenyl]propanamide] | 30
CC(O)(COc1ccc([N-]C#[S+])cc1)C(=O)Nc1ccc([N+](=O)[O-])c(C(F)(F)F)c1 [(2S)-2-hydroxy-3-(4-isothiocyanatophenoxy)-2-methyl-N-[4-nitro-3-(trifluoromethyl)phenyl]propanamide] | 4.62
CC(=O)Nc1ccc(SC[C@](C)(O)C(=O)Nc2ccc([N+](=O)[O-])c(C(F)(F)F)c2)cc1 [(2R)-3-[(4-acetamidophenyl)sulfanyl]-2-hydroxy-2-methyl-N-[4-nitro-3-(trifluoromethyl)phenyl]propanamide] | 4.9
